From US12667604B2, “Combination therapy with controlled-release CNP agonists” (ASCENDIS PHARMA GROWTH DISORDERS A/S, priority 2016, dated 2026)

Experiments:
Fgfr3Y367C/+ mice = assay: Achondroplasia phenotype in Fgfr3Y367C/+ mice (whole body autoradiography, bone lengths); assay type: in vivo; conditions: dosing from day 1 of birth for 15 days; single agent or combination
Experimental: Animals are sacrificed on day 16 and tissues fixed for histologic or immunohistochemical analysis. Either compound is administered alone or in combination. The dose levels employed for Rosuvastatin are 0.25, 0.5, 1.0 and 2.0 mg/kg. […] The ratios ranges from 1:1-24:1
Reversion of phenotypical features are assessed using whole body autoradiography. The animals are placed on their right side, with the left hind leg more forward than the right, to allow both hind legs to be visible on the X-ray. Bones obtained at necropsy include femur, tibia, humerus, ulna, lumbar vertebra segment L 4-6 and are measured with a caliper.

[1] = test system: hypophysectomized (HYPOX) SPF Sprague Dawley rats; assay: Histomorphometric measurement of proliferative zone width of right tibia growth plate; assay type: in vivo, rat; conditions: Somatropin alone versus control (vehicle)
Experimental: (§1) Method: This study was performed in order to test and compare the effect of Lys26 CNP-38 PEG4×10 kDa conjugate, Somatropin and combinations of the two compounds in an animal model relevant for investigating treatment of growth deficiency. The Somatropin (human growth hormone, hGH) was a United States Pharmacopeia (USP) Reference Standard and was prepared according to supplier instructions. Lys26 CNP-38 PEG4×10 kDa conjugate and Somatropin were administered alone or in combination via subcutaneous injection to hypophysectomized (HYPOX) SPF Sprague Dawley rats for a total of 29 days. The animals were dosed daily with Somatropin or vehicle, and weekly with Lys26 CNP-38 PEG4×10 kDa conjugate (at two different sites in animals receiving both test items on days 1, 8, 15, 22, and 29). The dose levels employed for Lys26 CNP-38 PEG4×10 kDa conjugate were 0.3, 1.0, and 2.0 mg/kg. Somatropin was employed at […] with a concentration of 10 μg/mL (˜8-10 μg/kg with animal weights between 100-120 g during the study period). The animals were weighed predose and once daily during the dosing period. […] Animals were sacrificed on day 30, and femur and tibia were trimmed and their length measured using a caliper. Hereafter, right tibia was fixed and processed for histologic and histomorphometric analysis.

[2] = test system: hypophysectomized (HYPOX) SPF Sprague Dawley rats; assay: Histologic evaluation of HE stained right tibia, width of the endochondral/ossification zone; assay type: in vivo, rat
Experimental: as §1

[3] = test system: hypophysectomized (HYPOX) SPF Sprague Dawley rats; assay: Femur and tibia length measured with a caliper in hypophysectomized rats; assay type: in vivo, rat; conditions: Somatropin alone, daily s.c.; relative to the vehicle group; day 30
Experimental: as §1

[4] = test system: hypophysectomized (HYPOX) SPF Sprague Dawley rats; assay: Body weight gain in hypophysectomized rats; assay type: in vivo, rat
Experimental: as §1

Row | Compound | reversal of the achondroplasic phenotype (Fgfr3Y367C/+ mice) | width of the proliferative zone [1] | Number of animals, width of endochondral/ossification zone Normal (grade 0) ([2]; Somatropin alone) | width of the endochondral/ossification zone, histologic evaluation ([2]; compared to vehicle or to conjugate alone) | increase in femur length [3] | increase in tibia length [3] | Average BWG (g) (±SE) ([4]; body weight gain day 0 (predose) to day 28, Somatropin alone, daily s.c. 10 μL/animal of 10 μg/mL (~8-10 μg/kg)) | body weight gain ([4]; compared to vehicle treated group)
1 | CC(C)c1nc(N(C)S(C)(=O)=O)nc(-c2ccc(F)cc2)c1/C=C/[C@@H](O)C[C@@H](O)CC(=O)O [Rosuvastatin] | beneficial effect on reversal of the achondroplasic phenotype is observed |  |  |  |  |  |  | 
2 | Somatropin: human growth hormone, hGH; United States Pharmacopeia (USP) Reference Standard |  | not different from control (vehicle) animals | 9 | did not differ from background (vehicle) | −0.04±0.08 mm | 0.55±0.17 mm | 4.44 (±0.94) g | Significant body weight gains
